Converted amounts (≈) assume the structure as drawn.
Legend:
Assay in all cases: Proliferation inhibition of cancer cells (propidium iodide fluorescence)
Format in all cases: cell-based, human
PC3M = conditions: Prostate, PC3M cell line
Experimental: (§1) Using various human cancer cells in vitro, the concentrations of the test compounds (A, B, C, D, E, F), which inhibit the proliferation of cancer cells by 50% (IC50) and 70% (IC70) were determined. Specifically, each cell line of bladder cancer (BXF 1218L and T-24), glioblastoma (CNXF 498NL), colic cancer (HCT-116 and HT-29), gastric cancer (GXF 251 L), head and neck cancer (HNXF 536L), non small cell lung cancer (LXF 1121L, LXF 289L, LXF 526L, LXF 529L, LXF 629L and H-460), mammary cancer (MAXF 401NL, MCF-7, MDA-231 and MDA-468), melanoma (MEXF 276L, MEXF 394NL, MEXF 462NL, MEXF 514L and MEXF 520L), ovary cancer (OVXF 1619L, OVXF 899L and OVCAR-3), pancreatic cancer (PAXF 1657L and PANC-1), prostate cancer (22Rv1, DU-145, LNCaP and PC3M), pleuramesothelioma (PXF 1752L), renal cancer (RXF 1781 L, RXF 393NL, RXF 486L and RXF 944L), and uterine cancer (UXF 1138L) is added to a 96-well microtiter plate at a density of 3.6-11.2x10^3 cells per well in RPMI-1640 medium containing 10% fetal calf serum and 0.1% gentamicin and incubated for 24 hours. After 24 hours RPMI-1640 medium containing 10% fetal calf serum and 0.1% gentamicin, together with a test compound, is added thereto. Then, this plate is incubated at 37°C for 4 days in a humidified atmosphere of air containing 5% CO2. Thereafter, the cell culture medium with or without drug was replaced by 200 µl of an aqueous PI solution (7 µg/ml propidium iodide). Applying a freeze thaw cycle to permeabilize intact cell walls, staining of DNA was achieved, and the fluorescence of each well was measured using the Cy-tofluor 4000 microplate reader (excitation 530 nm, emission 620 nm), giving a direct relationship to the total cell number. Proliferation inhibition is expressed as test versus untreated control (T/C-value [%]). IC50 and IC70 values were determined by plotting compound concentration versus cell viability.

RXF 393NL = conditions: Kidney, RXF 393NL cell line
Experimental: as §1

MDA-468 = conditions: Breast, MDA-468 cell line
Experimental: as §1

H-460 = conditions: Lung, non small cell, H-460 cell line
Experimental: as §1

LXFA 289L = conditions: Lung, non small cell, LXFA 289L cell line
Experimental: as §1

MCF-7 = conditions: Breast, MCF-7 cell line
Experimental: as §1

RXF 1781 L = conditions: Kidney, RXF 1781 L cell line
Experimental: as §1

MEXF 520L = conditions: Melanoma, MEXF 520L cell line
Experimental: as §1

DU-145 = conditions: Prostate, DU-145 cell line
Experimental: as §1

OVXF 1619L = conditions: Ovary, OVXF 1619L cell line
Experimental: as §1

GXF 251 L = tested on: GXF 251 L
Experimental: as §1

RXF 486L = RXF 486L cell line
Experimental: as §1

HNXF 536L = conditions: Head and Neck, HNXF 536L cell line
Experimental: as §1

LNCaP = conditions: Prostate, LNCaP cell line
Experimental: as §1

MAXF 401NL = MAXF 401NL cell line
Experimental: as §1

MEXF 276L = conditions: Melanoma, MEXF 276L cell line
Experimental: as §1

22Rv1 = conditions: Prostate, 22Rv1 cell line
Experimental: as §1

LXFL 529L = LXFL 529L cell line
Experimental: as §1

RXF 944L = conditions: Kidney, RXF 944L cell line
Experimental: as §1

LXFA 526L = conditions: Lung, non small cell, LXFA 526L cell line
Experimental: as §1

BXF 1218L = conditions: Bladder, BXF 1218L cell line
Experimental: as §1

OVXF 899L = conditions: Ovary, OVXF 899L cell line
Experimental: as §1

T-24 = conditions: Bladder, T-24 cell line
Experimental: as §1

MEXF 514L = conditions: Melanoma, MEXF 514L cell line
Experimental: as §1

SMILES: C[C@@H]1CC(=O)[C@@H](O)[C@]2(O1)O[C@@H]1CC(=O)O[C@@H]1C1=C2C(=O)c2c(O)cccc2C1=O [Compound B, 4'-dehydro-deacetylgriseusin A]
- IC50 (PC3M): 0.402 µg/mL (≈ 1 µM)
- IC70 (PC3M): 0.929 µg/mL (≈ 2.32 µM)
- IC50 (RXF 393NL): 0.104 µg/mL (≈ 0.26 µM)
- IC70 (RXF 393NL): 0.164 µg/mL (≈ 0.41 µM)
- IC50 (MDA-468): 0.060 µg/mL (≈ 0.15 µM)
- IC70 (MDA-468): 0.127 µg/mL (≈ 0.317 µM)
- IC50 (H-460): 0.490 µg/mL (≈ 1.22 µM)
- IC70 (H-460): 1.042 µg/mL (≈ 2.6 µM)
- IC50 (LXFA 289L): 8.770 µg/mL (≈ 21.9 µM)
- IC70 (LXFA 289L): 14.801 µg/mL (≈ 37 µM)
- IC50 (MCF-7): 0.138 µg/mL (≈ 0.345 µM)
- IC70 (MCF-7): 0.210 µg/mL (≈ 0.525 µM)
- IC50 (RXF 1781 L): 0.407 µg/mL (≈ 1.02 µM)
- IC70 (RXF 1781 L): 1.134 µg/mL (≈ 2.83 µM)
- IC50 (MEXF 520L): 0.102 µg/mL (≈ 0.255 µM)
- IC70 (MEXF 520L): 0.175 µg/mL (≈ 0.437 µM)
- IC50 (DU-145): 0.251 µg/mL (≈ 0.627 µM)
- IC70 (DU-145): 0.669 µg/mL (≈ 1.67 µM)
- IC50 (OVXF 1619L): 0.242 µg/mL (≈ 0.604 µM)
- IC70 (OVXF 1619L): 0.916 µg/mL (≈ 2.29 µM)
- IC50 value (GXF 251 L; GXF 251L cell line, 4 days): 0.106 µg/mL (≈ 0.265 µM)
- IC50 (GXF 251 L; Stomach, GXF 251 L cell line): 0.106 µg/mL (≈ 0.265 µM)
- IC70 (GXF 251 L; Stomach, GXF 251 L cell line): 0.178 µg/mL (≈ 0.445 µM)
- IC50 (RXF 486L; Kidney): 0.078 µg/mL (≈ 0.195 µM)
- IC70 (RXF 486L; Kidney): 0.142 µg/mL (≈ 0.355 µM)
- IC50 value (RXF 486L; 4 days): 0.078 µg/mL (≈ 0.195 µM)
- IC50 (HNXF 536L): 0.237 µg/mL (≈ 0.592 µM)
- IC70 (HNXF 536L): 0.716 µg/mL (≈ 1.79 µM)
- IC50 (LNCaP): 0.107 µg/mL (≈ 0.267 µM)
- IC70 (LNCaP): 0.175 µg/mL (≈ 0.437 µM)
- IC50 (MAXF 401NL; Breast): 0.090 µg/mL (≈ 0.225 µM)
- IC70 (MAXF 401NL; Breast): 0.160 µg/mL (≈ 0.4 µM)
- IC50 value (MAXF 401NL; 4 days): 0.09 µg/mL (≈ 0.225 µM)
- IC50 (MEXF 276L): 0.112 µg/mL (≈ 0.28 µM)
- IC70 (MEXF 276L): 0.212 µg/mL (≈ 0.53 µM)
- IC50 (22Rv1): 0.071 µg/mL (≈ 0.177 µM)
- IC70 (22Rv1): 0.139 µg/mL (≈ 0.347 µM)
- IC50 value (LXFL 529L; 4 days): 1.068 µg/mL (≈ 2.67 µM)
- IC50 (LXFL 529L; Lung, non small cell): 1.068 µg/mL (≈ 2.67 µM)
- IC70 (LXFL 529L; Lung, non small cell): 1.814 µg/mL (≈ 4.53 µM)
- IC50 (RXF 944L): 0.038 µg/mL (≈ 0.0949 µM)
- IC70 (RXF 944L): 0.107 µg/mL (≈ 0.267 µM)
- IC50 (LXFA 526L): 0.129 µg/mL (≈ 0.322 µM)
- IC70 (LXFA 526L): 0.206 µg/mL (≈ 0.515 µM)
- IC50 (BXF 1218L): 0.056 µg/mL (≈ 0.14 µM)
- IC70 (BXF 1218L): 0.133 µg/mL (≈ 0.332 µM)
- IC50 (OVXF 899L): 1.265 µg/mL (≈ 3.16 µM)
- IC70 (OVXF 899L): 2.249 µg/mL (≈ 5.62 µM)
- IC50 (T-24): 0.507 µg/mL (≈ 1.27 µM)
- IC70 (T-24): 1.137 µg/mL (≈ 2.84 µM)
- IC50 (MEXF 514L): 0.087 µg/mL (≈ 0.217 µM)
- IC70 (MEXF 514L): 0.149 µg/mL (≈ 0.372 µM)
